Measured values published in ChEMBL document CHEMBL3580659, “One-pot multicomponent synthesis of indole incorporated thiazolylcoumarins and their antibacterial, anticancer and DNA cleavage studies” (2015).

Assays:
Type in all cases: functional
SNB-75 [1] = assay: Cytotoxicity against human SNB75 cells assessed as cell growth level at 100 uM after 48 hrs by sulforhodamine B assay
M14 = assay: Cytotoxicity against human M14 cells assessed as cell growth level at 100 uM after 48 hrs by sulforhodamine B assay
UACC-257 = assay: Cytotoxicity against human UACC257 cells assessed as cell growth level at 100 uM after 48 hrs by sulforhodamine B assay
UACC-62 = assay: Cytotoxicity against human UACC62 cells assessed as cell growth level at 100 uM after 48 hrs by sulforhodamine B assay
OVCAR-3 [2] = assay: Cytotoxicity against human OVCAR3 cells assessed as cell growth level at 100 uM after 48 hrs by sulforhodamine B assay
SK-OV-3 = assay: Cytotoxicity against human SKOV3 cells assessed as cell growth level at 100 uM after 48 hrs by sulforhodamine B assay
SN12C [3] = assay: Cytotoxicity against human SN12C cells assessed as cell growth level at 100 uM after 48 hrs by sulforhodamine B assay
NCI-H460 [4] = assay: Cytotoxicity against human NCI-H460 cells assessed as cell growth level at 10 nM after 48 hrs by sulforhodamine B assay
SF-268 = assay: Cytotoxicity against human SF268 cells assessed as cell growth level at 10 nM after 48 hrs by sulforhodamine B assay
SNB-19 = assay: Cytotoxicity against human SNB19 cells assessed as cell growth level at 10 nM after 48 hrs by sulforhodamine B assay
SNB-75 [5] = assay: Cytotoxicity against human SNB75 cells assessed as cell growth level at 10 nM after 48 hrs by sulforhodamine B assay
U-251 = assay: Cytotoxicity against human U251 cells assessed as cell growth level at 10 nM after 48 hrs by sulforhodamine B assay
OVCAR-4 [6] = assay: Cytotoxicity against human OVCAR4 cells assessed as cell growth level at 10 nM after 48 hrs by sulforhodamine B assay
SN12C [7] = assay: Cytotoxicity against human SN12C cells assessed as cell growth level at 10 nM after 48 hrs by sulforhodamine B assay
HCT-15 [8] = assay: Cytotoxicity against human HCT15 cells assessed as cell growth level at 100 nM after 48 hrs by sulforhodamine B assay
SNB-75 [9] = assay: Cytotoxicity against human SNB75 cells assessed as cell growth level at 100 nM after 48 hrs by sulforhodamine B assay
NCI-H23 = assay: Cytotoxicity against human NCI-H23 cells assessed as cell growth level at 10 uM after 48 hrs by sulforhodamine B assay
T47D = assay: Cytotoxicity against human T47D cells assessed as cell growth level at 100 nM after 48 hrs by sulforhodamine B assay
COLO 205 = assay: Cytotoxicity against human COLO205 cells assessed as cell growth level at 10 uM after 48 hrs by sulforhodamine B assay
HCT-15 [10] = assay: Cytotoxicity against human HCT15 cells assessed as cell growth level at 10 uM after 48 hrs by sulforhodamine B assay
LOX IMVI = assay: Cytotoxicity against human LOXIMVI cells assessed as cell growth level at 10 uM after 48 hrs by sulforhodamine B assay
SK-MEL-28 = assay: Cytotoxicity against human SK-MEL-28 cells assessed as cell growth level at 10 uM after 48 hrs by sulforhodamine B assay
OVCAR-3 [11] = assay: Cytotoxicity against human OVCAR3 cells assessed as cell growth level at 10 uM after 48 hrs by sulforhodamine B assay
786-0 = assay: Cytotoxicity against human 786-0 cells assessed as cell growth level at 10 uM after 48 hrs by sulforhodamine B assay
SK-MEL-5 = assay: Cytotoxicity against human SK-MEL-5 cells assessed as cell growth level at 1 uM after 48 hrs by sulforhodamine B assay
ACHN = assay: Cytotoxicity against human ACHN cells assessed as cell growth level at 1 uM after 48 hrs by sulforhodamine B assay
UO-31 = assay: Cytotoxicity against human UO31 cells assessed as cell growth level at 1 uM after 48 hrs by sulforhodamine B assay
BT-549 = assay: Cytotoxicity against human BT549 cells assessed as cell growth level at 1 uM after 48 hrs by sulforhodamine B assay
NCI-H322M = assay: Cytotoxicity against human NCI-H322M cells after 48 hrs by sulforhodamine B assay
SF-539 [12] = assay: Cytotoxicity against human SF539 cells after 48 hrs by sulforhodamine B assay; settings: SF-539, 48 h
SNB-75 [13] = assay: Cytotoxicity against human SNB75 cells after 48 hrs by sulforhodamine B assay; settings: SNB-75, 48 h
NCI-H226 = assay: Cytotoxicity against human NCI-H226 cells assessed as cell growth level at 100 uM after 48 hrs by sulforhodamine B assay
NCI-H460 [14] = assay: Cytotoxicity against human NCI-H460 cells assessed as cell growth level at 100 uM after 48 hrs by sulforhodamine B assay
HCC 2998 = assay: Cytotoxicity against human HCC2998 cells assessed as cell growth level at 100 uM after 48 hrs by sulforhodamine B assay
HCT-15 [15] = assay: Cytotoxicity against human HCT15 cells assessed as cell growth level at 100 uM after 48 hrs by sulforhodamine B assay
SF-539 [16] = assay: Cytotoxicity against human SF539 cells assessed as cell growth level at 100 uM after 48 hrs by sulforhodamine B assay
OVCAR-3 [17] = assay: Cytotoxicity against human OVCAR3 cells after 48 hrs by sulforhodamine B assay; settings: OVCAR-3, 48 h
OVCAR-4 [18] = assay: Cytotoxicity against human OVCAR4 cells after 48 hrs by sulforhodamine B assay; settings: OVCAR-4, 48 h
[19] = Cytotoxicity against human Hs 578T cells after 48 hrs by sulforhodamine B assay
K562 = assay: Cytotoxicity against human K562 cells assessed as cell growth level at 10 nM after 48 hrs by sulforhodamine B assay
[20] = read-out: LC50 (the source's name)
[21] = read-out: pLC50 (the source's name) (converted)

O=c1oc2ccccc2cc1-c1csc(N/N=C/c2c[nH]c3ccccc23)n1
Activity (SNB-75 [1]): -53%
Activity (M14): -77%
Activity (UACC-257): -89%
Activity (UACC-62): -27%
Activity (OVCAR-3 [2]): -2%
Activity (SK-OV-3): -48%
Activity (SN12C [3]): -51%
Activity (NCI-H460 [4]): 79%
Activity (SF-268): 96%
Activity (SNB-19): 91%
Activity (SNB-75 [5]): 94%
Activity (U-251): 100%
Activity (OVCAR-4 [6]): 90%
Activity (SN12C [7]): 88%
Activity (HCT-15 [8]): 96%
Activity (SNB-75 [9]): 90%
Activity (NCI-H23): 25.93%
Activity (T47D): 96%
Activity (COLO 205): 28.15%
Activity (HCT-15 [10]): 12.32%
Activity (LOX IMVI): -52.19%
Activity (SK-MEL-28): 54.83%
Activity (OVCAR-3 [11]): -80.31%
Activity (786-0): -53.65%
Activity (SK-MEL-5): 90%
Activity (ACHN): 72%
Activity (UO-31): 46%
Activity (BT-549): 58%
GI50 (NCI-H322M; read-out: GI50): 3.16 µM
LC50 (concentration killing 50% of cells) (NCI-H322M; read-out: LC50): > 100 µM
TGI (NCI-H322M; read-out: TGI): 32.2 µM
GI50 (NCI-H322M; read-out: pGI50 (converted)): 3.16 µM
LC50 (concentration killing 50% of cells) (NCI-H322M; read-out: pLC50 (converted)): > 100 µM
TGI (NCI-H322M; read-out: pTGI (converted)): 32.4 µM
GI50 (SF-539 [12]; read-out: GI50): 1.58 µM
CC50 (SF-539 [12]; [20]): 7.25 µM
TGI (SF-539 [12]; read-out: TGI): 3.38 µM
GI50 (SF-539 [12]; read-out: pGI50 (converted)): 1.58 µM
CC50 (SF-539 [12]; [21]): 7.24 µM
TGI (SF-539 [12]; read-out: pTGI (converted)): 3.39 µM
GI50 (SNB-75 [13]; read-out: GI50): 2 µM
CC50 (SNB-75 [13]; [20]): > 100 µM
TGI (SNB-75 [13]; read-out: TGI): 8.92 µM
GI50 (SNB-75 [13]; read-out: pGI50 (converted)): 2 µM
CC50 (SNB-75 [13]; [21]): > 100 µM
TGI (SNB-75 [13]; read-out: pTGI (converted)): 8.91 µM
Activity (NCI-H226): -31%
Activity (NCI-H460 [14]): -94%
Activity (HCC 2998): -92%
Activity (HCT-15 [15]): -48%
Activity (SF-539 [16]): -4%
GI50 (OVCAR-3 [17]; read-out: GI50): 1.16 µM
CC50 (OVCAR-3 [17]; [20]): 7.31 µM
TGI (OVCAR-3 [17]; read-out: TGI): 2.91 µM
GI50 (OVCAR-3 [17]; read-out: pGI50 (converted)): 1.15 µM
CC50 (OVCAR-3 [17]; [21]): 7.24 µM
TGI (OVCAR-3 [17]; read-out: pTGI (converted)): 2.88 µM
GI50 (OVCAR-4 [18]; read-out: GI50): 1.37 µM
CC50 (OVCAR-4 [18]; [20]): > 100 µM
TGI (OVCAR-4 [18]; read-out: TGI): 5.87 µM
GI50 (OVCAR-4 [18]; read-out: pGI50 (converted)): 1.38 µM
CC50 (OVCAR-4 [18]; [21]): > 100 µM
TGI (OVCAR-4 [18]; read-out: pTGI (converted)): 5.89 µM
GI50 ([19]; read-out: GI50): 3.2 µM
CC50 [19, 20]: > 100 µM
TGI ([19]; read-out: TGI): 58.9 µM
GI50 ([19]; read-out: pGI50 (converted)): 3.16 µM
CC50 [19, 21]: > 100 µM
TGI ([19]; read-out: pTGI (converted)): 58.9 µM
Activity (K562): 95%
